According to PubChem BioAssay AID1626 (SRMLSC, 2009):

System: M. tuberculosis H37Rv growth inhibition
Assay: M. tuberculosis H37Rv growth inhibitors, H37Rv strain (AID 1626)
Details: for IC90: measured here: IC90 against H37Rv; for CC50: measured here: Vero cell cytotoxicity

| SMILES | IC50 [µM] | IC90 [µM] | CC50 [µM] |
| --- | --- | --- | --- |
| CCCN(CCC)CC(O)Cn1cc(/C=C/C(=O)c2ccccc2)c2ccccc21 (configuration not stated) | 1.5 | 1.66 | 20.3 |
| Cc1ccc(C(=O)CC(SCC(=O)O)c2ccc([N+](=O)[O-])cc2)cc1 (configuration not stated) | 7.91 | > 100 | 36.8 |
| O=C(OCC(=O)c1c[nH]c2ccccc12)c1cc2ccccc2cc1O | 11.3 | > 100 | > 40 |
| Cc1ccc(Nc2c(-c3ccccn3)nc3cc(C)ccn23)cc1 | 1.38 | 1.55 | 1.39 |
| Clc1ccc2c(c1)C(c1ccccc1Cl)=NCc1nnc(N3CCN(CCOc4ccccc4)CC3)n1-2 | 12.5 | 16.7 | > 40 |
| Nc1nc(CCl)nc(Nc2ccccc2)n1 | 31.2 | > 100 | 3.32 |
| O=C(C[n+]1cc(-c2ccccc2)n2c1CCC2)Nc1nc(-c2ccc(F)cc2)cs1 | 19.9 | 42.8 | – |
| CCCCOC(=O)CSc1nc(N)c(C#N)c(-c2ccc(OC)cc2)c1C#N | 1.14 | 2.39 | – |
| CC(=O)c1ccc(OCC(=O)Nc2ccc3c(c2)CCC3)cc1 | 12.6 | > 100 | > 40 |
| Cc1ccc(OC(=O)c2sc3ncn(C)c(=O)c3c2C)cc1 | 1.49 | 1.7 | – |
| COc1ccc(/C=C2/Sc3ccc(C(=O)N4CCc5ccccc5C4)cc3NC2=O)cc1 | 20 | > 100 | > 40 |
| Oc1ccc2cc(Br)ccc2c1CN1CCCC1 | 22.2 | > 100 | > 40 |
| Cc1cc(N2CCCCC2)nc2ccc(NC(=O)c3ccc(Br)o3)cc12 | 1.69 | 3.38 | > 40 |
| Cc1ccc2nc(-c3cccc(N)c3)oc2c1 | 12.7 | > 100 | > 40 |
| Nc1ccc2oc(-c3cccc(Br)c3)nc2c1 | 3.98 | > 100 | – |
| CC(C)COCC(CN(Cc1ccccc1)c1ccccc1)N1CCCC1 (configuration not stated) | 14.8 | 20.1 | > 40 |
| O=C(Nc1nnc(-c2ccc3c(c2)OCCO3)o1)c1ccc(Cc2ccccc2)cc1 | 1.7 | > 100 | 38.1 |
| O=C(/C=C/c1ccccc1O)c1ccc(Cl)cc1 | 14.4 | 24.1 | 27 |
| Cc1nc(N2CCOCC2)c2c(C)c(C(=O)Nc3ccc(C(F)(F)F)cc3)sc2n1 | – | – | > 40 |
| CCCCc1ccc(NC=C2C(=O)OC3(CCCCC3)OC2=O)cc1 | 6.18 | > 100 | – |

| SMILES | IC50 [µM] | IC90 [µM] | CC50 [µM] |
| --- | --- | --- | --- |
| CCOC(=O)c1ccc(N/C=C2\CCCCC2=O)cc1 | – | > 100 | – |
| CCOC(=O)Cc1csc(NC(=O)c2c(O)c3ccccc3n(CCC(C)C)c2=O)n1 | < 0.195 | 0.224 | 8.48 |
| CCCc1nn(C)c(C(=O)Nc2ccc(CC)cc2)c1Cl | – | > 100 | – |
| CC(C)(C)c1ccc(C(=O)NCCCN2CCN(CCCNC(=O)c3ccc(C(C)(C)C)cc3)CC2)cc1 | 5.43 | 7.12 | 27.4 |
| COc1cccc(C(=O)Nc2nc(-c3ccccc3)c(-c3ccccc3)o2)c1 | < 0.195 | 6.62 | > 40 |
| CC(=O)Nc1nc(-c2cc([N+](=O)[O-])cs2)cs1 | < 0.195 | > 100 | – |
| Cc1cc(Cl)cc(C)c1OCCCCn1ccnc1 | 9.33 | 12.7 | > 40 |
| COC(=O)c1cc(NC(=O)N2c3ccccc3Sc3ccccc32)cc(C(=O)OC)c1 | – | – | > 40 |
| CCOC(=O)c1nc2sc3c(c2c(=O)[nH]1)CCC(C)C3 (configuration not stated) | 10.4 | > 100 | – |
| Cc1cc(C)c2c(n1)sc1c(N3CCCCC3)ncnc12 | 16.7 | > 100 | – |
| N#CC1=C(N)NC(SCC(=O)c2ccccc2)=C(C#N)C12CCCC2 | 7.73 | > 100 | – |
| CCn1ccnc1CN1CCCC(C(=O)c2ccc3cc(OC)ccc3c2)C1 (configuration not stated) | 10.9 | 25.5 | > 40 |
| COc1ccc(CNc2ncnc3cc(Cl)ccc23)cc1 | 58.5 | > 100 | – |
| COC(=O)CSc1nc(N)c2c3c(sc2n1)CCCC3 | 2.54 | 4.12 | – |
| CCCCOc1ccc(C(=O)N/C(=C/C=C/c2ccccc2)C(=O)N2CCOCC2)cc1 | 13.9 | > 100 | > 40 |
| Cc1cc(C)n(-c2nc(SCCN(C)C)c3c4c(sc3n2)CCCC4)n1 | 4.2 | 6.19 | 11.6 |
| COCCOC(=O)c1c(C)oc2ccc(OC(=O)c3ccco3)cc12 | 7.1 | > 100 | – |
| COc1cccc(N2CCN(c3cnc4ccccc4n3)CC2)c1 | 25.3 | > 100 | – |
| CCOC(=O)COc1ccc2c(=O)c(-c3ccccc3)coc2c1 | < 0.195 | 0.755 | – |
| O=C(CCCC(=O)OCC(=O)c1cccs1)Nc1ccc(Oc2ccccc2)cc1 | 17.4 | > 100 | – |

| SMILES | IC50 [µM] | IC90 [µM] | CC50 [µM] |
| --- | --- | --- | --- |
| CCOc1cc(/C=C2\SC(=N)N(c3nccs3)C2=O)ccc1OCCN1CCOCC1 | 0.393 | 1.02 | 19.1 |
| CCOC(=O)CSc1ncnc2c1cnn2-c1ccc(C)cc1C | 1.44 | 2.48 | – |
| CC(C)c1ccc2nc(N)sc2c1 | 43.3 | > 100 | > 40 |
| O=C(Nc1ccc(Cl)cc1)c1cc2c(cc1O)[nH]c1ccccc12 | 1.71 | 2.29 | 13.4 |
| O=[N+]([O-])c1ccc(Sc2nnnn2-c2ccccc2)nc1 | 8.34 | 12.6 | 8.99 |
| Brc1ccc(OCc2nc(-c3ccccn3)n[nH]2)cc1 | – | – | 10.6 |
| Nc1nc2ccccc2n1C(=O)c1ccccc1 | 21.9 | > 100 | > 40 |
| COc1ccc(NCC(=O)Nc2ccc(C#N)cc2)cc1Cl | 8.28 | > 100 | > 40 |
| Cc1cc2ncn(/N=C/c3ccc([N+](=O)[O-])s3)c2cc1C | < 0.195 | 0.282 | 8.74 |
| CCOC(=O)N1CCN(c2nc(N(c3ccccc3)c3ccccc3)nc(-n3ccnc3)n2)CC1 | 8.91 | 11.3 | > 40 |
| CCn1c(CNc2ccc(F)cc2)nnc1SCC(=O)OC1CCCCC1 | 12 | 13.7 | – |
| COC(=O)c1c(C)oc2ccc(OC(=O)c3cccs3)cc12 | 1.1 | 17.8 | – |
| CCCCCOc1ccc(Br)cc1CSC(=N)N | 9.43 | 12 | 14.8 |
| COC(=O)CSc1nc2c(c(-c3ccc(C)o3)c1C#N)CCCC2 | 2.66 | 3.47 | – |
| CC(=O)c1ccc(NC(=O)COC(=O)c2c3c(nc4ccccc24)/C(=C\c2cccs2)CCC3)cc1 | 0.449 | > 100 | 13.6 |
| Nc1ccc2ncccc2c1 | 37.9 | > 100 | – |
| Cc1ccccc1NC(=O)/C=C/c1ccc([N+](=O)[O-])s1 | 1.46 | 1.92 | 18.6 |
| CCCCc1ccc(C2C3=C(CC(C)(C)CC3=O)NC3=C2C(=O)c2ccccc23)cc1 (configuration not stated) | 3.09 | > 100 | > 40 |
| N#Cc1cnc2c(-c3ccccc3)c(-c3ccccc3)nn2c1N | 28.1 | > 100 | > 40 |
